Here are results for 1 compound from patent US20080051413A1, “Nitrophenylpiperazine derivative of xanthine which relaxes tracheal airway and increases respiratory performance” (KAOHSIUNG MEDICAL UNIVERSITY, priority 2006, published 2008).

Several values for one entry are separate records, joined by “and”; a condition that tells them apart may be missing. Equal entries are not always repeated.

The subject of test [1] is cultured guinea pig tracheal smooth muscle cells. The test is described as follows: Expression of PKA and PKG (Western blot). Type of test: cell-based. The procedure:
(§1) Cell Culture of Tracheal Smooth Muscle: Guinea pigs (350-450 g) were injected i.p. with a lethal dose of pentobarbital. The tracheas were excised and cut longitudinally through the cartilage. Using a dissecting microscope, TSM strips were dissected from the surrounding parentchyma. The epithelium was removed from the luminal surface, and bands of TSM were gently separated from the underlying connective tissue. Then TSM strips were chopped into small sections (1 mm^3) and incubated in Hanks' balanced salt solution (138 mM NaCl, 4 mM NaHCO3, 5 mM KCl, 0.3 mM KH2PO4, 0.3 mM Na2HPO4, and 1.0 mM glucose) with 0.05% elastase type IV and 0.2% collagenase type IV (Invitrogen, Carlsbad, Calif.) for 30 min at 37_ with gentle shaking. The solution of dissociated smooth muscle cells was centrifuged (6 min at 500 g), and the pellet was resuspended in 1:1 Dulbecco's modified Eagle's medium/Ham's F-12 medium supplemented with 10% fetal bovine serum, 0.244% NaHCO3, and 1% penicillin/streptomycin. Cells were cultured in 25-cm^2 flasks at 37_ in humidified air containing 5% CO2. Confluent cells were detached with 0.25% trypsin-0.02% EDTA at 37_and then subcultured to establish secondary cultures. Cultures were maintained for no more than four passages. They were identified as smooth muscle cells by the typical hill-and-valley appearance, and cellular homogeneity was further confirmed by the presence of smooth muscle specific _-myosin and _-actin immunoreactivity. Indirect immunofluorescence staining for a variety of antigens was carried out by first plating the cells on chamber slides, fixing the cells in 3.7% formaldehyde-phosphate-buffered saline for 10 min, and permeabilizing the cells with phosphate-buffered saline and 0.1% Triton X-100. Cells were then stained with either a mouse monoclonal antibody directed against the amino-terminal 10 amino acids of _-smooth muscle actin or _-myosin (Roche Diagnostics, Indianapolis, Ind.). All cells were stained with fluorescein-labeled goat anti-mouse IgG antibody (Roche Diagnostics).
Expression of PKA and PKG: The expression of PKA and PKG was determined by Western blot as previously described by Wu et al. and Murthy et al. (Wu B N, Lin R J, Lo Y C, Shen K P, Wang C C, Lin Y T, and Chen I J (2004) KMUP-1, a xanthine derivatives, induces relaxation of guinea-pig isolated trachea: the role of the epithelium, cyclic nucleotides and K^+ channels. Br J Pharmacol 142:1105-1114; Murthy K S, Zhou H, and Makhlouf G M (2002) PKA-dependent activation of PDE3A and PDE4 and inhibition of adenylyl cyclase V/VI in smooth muscle. Am J Physiol 282:C508-C517). Guinea pig TSMCs were incubated with KMUP-3 for 30 min. Each of the cell lysates, each containing 1 _g of cellular protein, was electrophoresed in 7.5% SDS-polyacrylamide gel electrophoresis and then transferred to polyvinylidene diflouride membrane (Millipore Corporation, Billerica, Mass.). The membrane was stained with Ponceau S to verify the integrity of the transferred proteins and to monitor the unbiased transfer of all protein samples. The membrane was then washed with 25 ml of TBS (100 mM NaCl, 0.1% and 10 mM Tris-HCl, pH 7.5) for 5 min at room temperature and incubated in 25 ml of blocking buffer (TBS plus 0.1% Tween 20 and 5% nonfat milk) overnight at 4_. In the measurement of protein, the membrane was incubated with appropriate PKARI or PKA1—1— primary antibody (diluted 1:250) in 2 ml of blocking buffer for 1 h at room temperature, washed three times for 5 min each with 15 ml of Tris-buffered saline/Tween 20 (TBS plus 0.1% Tween 20), incubated with horseradish peroxidase-conjugated secondary antibody (1:10,000) in 15 ml of blocking buffer with gentle agitation for 1 h at room temperature, and finally washed three times for 5 min each time with 15 ml of Tris-buffered saline/Tween 20. The membrane was then subjected to enhanced chemiluminescence (GE Healthcare) for the detection of the specific antigen.
(Immunoblotting shows a protein as a band on a membrane.)

The test system of test [2] is guinea pig tracheal smooth muscle cells. The test is described as follows: Measurement of cGMP in TSMCs. The test is classed as cell-based. To be noted: for GMP level: basal 1.18±0.06. The procedure: as §1
Measurement of cAMP and cGMP: Intracellular concentrations of cAMP and cGMP in TSMCs were measured as in our previous reports (Wu B N, Lin R J, Lin C Y, Shen K P, Chiang L C, and Chen I J (2001) A xanthine-based KMUP-1 with cyclic GMP enhancing and K^+ channels opening activities in rat aortic smooth muscle. Br J Pharmacol 134:265-274; Lin R J, Wu B N, Lo Y C, Shen K P, Lin Y T, Huang C H, and Chen I J (2002) KMUP-1 relaxes rabbit corpus cavernosum smooth muscle in vitro and in vivo: involvement of cyclic GMP and K(+) channels, Br J Pharmacol 135:1159-1166). In brief, cells were finally grown in 24-well plates (10^5 cells/well). At confluence, monolayer cells were washed with phosphate-buffered saline and then incubated with KMUP-3 (0.01-100 _M) for 20 min at 37_ in medium. […] The reaction was terminated by replacement of medium with 1 ml of ice-cold 1 N hydrochloric acid. Cells suspensions were sonicated and then centrifuged at 2500 g for 15 min at 4_. Then, the supernatants were lyophilized and the cAMP and cGMP of each sample were determined using commercially available radioimmunoassay kits (GE Healthcare, Little Chalfont, Buckinghamshire, UK).

`Cn1c(=O)c2c(ncn2CCN2CCN(c3ccc([N+](=O)[O-])cc3)CC2)n(C)c1=O` [KMUP-3]: in test [1] (1 _M, 30 min), the “expression of PKA1—1— (FIG. 7(B))” value is listed as “increased the expression of PKA1—1—”. Further, the “expression of immunoreactive PKARI protein (FIG. 7(A))” value in test [1] (1 _M, 30 min) is listed as “increased the expression of PKARI”. Also, the “PKG protein after ODQ pretreatment” value in test [1] (ODQ (10_M) 30 min prior to compound (1 _M)) is given as “significantly reduced”. Also, the “PKA protein expression after ODQ pretreatment” value in test [1] (ODQ (10 _M) 30 min prior to compound, unpublished data) is reported as “did not significantly affect”. In test [1] (SQ 22536 (100 _M) 30 min prior to compound (1 _M)), the “expression of PKARI after SQ 22536 pretreatment” value is given as “attenuated”. The GMP level was 1.62±0.05 pmol/mg protein in test [2] (0.01 _M, 20 min); 1.73±0.01 pmol/mg protein in test [2] (0.1 _M, 20 min); 1.75±0.04 pmol/mg protein in test [2] (1 _M, 20 min); 1.86±0.05 pmol/mg protein in test [2] (10 _M, 20 min). In addition, the “Cyclic GMP level in presence of L-NAME” value in test [2] (100 _M compound plus L-NAME (100 _M) pretreatment) stood at 1.28 ± 0.01 pmol/mg protein. For the same compound, the “Cyclic GMP level in presence of ODQ” value in test [2] (100 _M compound plus ODQ (10 _M) pretreatment) came out at 1.35 ± 0.04 pmol/mg protein. Further, the “amounts of cGMP versus vehicle (FIG. 6)” value in test [2] (100 _M, 20 min) is “significantly enhances”. Also, the “Cyclic GMP level” value in test [2] (100 _M, 20 min, basal/vehicle 1.18±0.06) is 1.98±0.09 pmol/mg protein and 1.98 ± 0.08 pmol/mg protein.
